Laboratory results as given in patent publication US6552080B1, “Fungicidal compounds having a fluorovinyl-or fluoropropenyl-oxyphenyloxime moiety and process for the preparation thereof” (Korea Research Institute of Chemical Technology, priority 1999, dated 2003).
Like-named read-outs stand apart in the source and are kept apart here.

Tests used:
Puccinia recondita = assay: Fungicidal activity against Wheat Leaf Rust (WLR) disease; type: in vivo; settings: for WLR (Fungicidal Activities, C.V.): Wheat Leaf Rust
Erysiphae graminis = assay: Fungicidal activity against Barley Powdery Mildew (BPM) disease; type: in vivo; settings: for BPM (Fungicidal Activities, C.V.): Barley Powdery Mildew
Phytophthora infestans = type: in vivo; settings: for TLB (Fungicidal Activities, C.V.): Tomato Late Blight
Rhizoctonia solani AG-1 = assay: Fungicidal activity against Rice Sheath Blight (RSB) disease; settings: for RSB (Fungicidal Activities, C.V.): Rice Sheath Blight
[1] = tested on: Pyricularia oryzae Carvara KA301; type: in vivo; settings: for RCV (Fungicidal Activities, C.V.): Rice Blast
Botrytis cinerae = assay: Fungicidal activity against Cucumber Gray Mold Rot (CGM) disease; type: in vivo; settings: for CGM (Fungicidal Activities, C.V.): Cucumber Gray Mold Rot, concentration 50 ppm
Description: Botrytis cinerae, which was isolated from cucumber infected thereby, was inoculated on a PDA agar medium and cultured under a 12L/12D cycle at 25° C. for 15 days to form spore. The spores were scraped, filtered through a gauze and then suspended in potato dextrose liquid medium at a concentration of 1×10^6 spore/ml. The spore suspension was sprayed on a cucumber plant having one leaf. The cucumber plant was held in a humidified room at 20° C. for 3 days. L.A. on a leaf was measured to calculate an C.V.

## CON=C(C(=O)OC)c1ccccc1CON=Cc1cccc(OC(F)=Cc2ccc3c(c2)OCO3)c1 [Compound 29]
Puccinia recondita; concentration 2 ppm
  WLR (Fungicidal Activities, C.V.): 96%
Puccinia recondita; concentration 50 ppm
  WLR (Fungicidal Activities, C.V.): 88%
Erysiphae graminis; concentration 2 ppm
  BPM (Fungicidal Activities, C.V.): 41%
Erysiphae graminis; concentration 50 ppm
  BPM (Fungicidal Activities, C.V.): 80%
Phytophthora infestans; concentration 2 ppm
  TLB (Fungicidal Activities, C.V.): 78%
Phytophthora infestans; concentration 50 ppm
  TLB (Fungicidal Activities, C.V.): 84%
Rhizoctonia solani AG-1; concentration 2 ppm
  RSB (Fungicidal Activities, C.V.): 20%
Rhizoctonia solani AG-1; concentration 50 ppm
  RSB (Fungicidal Activities, C.V.): 35%
[1]; concentration 2 ppm
  RCV (Fungicidal Activities, C.V.): 93%
[1]; concentration 50 ppm
  RCV (Fungicidal Activities, C.V.): 100%
Botrytis cinerae
  CGM (Fungicidal Activities, C.V.): 0%

## COC=C(C(=O)OC)c1ccccc1CON=C(C)c1cccc(OC(F)=Cc2cccc(C)c2)c1 [Compound 41]
Puccinia recondita; concentration 2 ppm
  WLR (Fungicidal Activities, C.V.): 99%
Puccinia recondita; concentration 10 ppm
  WLR (Fungicidal Activities, C.V.): 100%
Puccinia recondita; concentration 50 ppm
  WLR (Fungicidal Activities, C.V.): 100%
Erysiphae graminis; concentration 2 ppm
  BPM (Fungicidal Activities, C.V.): 100%
Erysiphae graminis; concentration 10 ppm
  BPM (Fungicidal Activities, C.V.): 100%
Erysiphae graminis; concentration 50 ppm
  BPM (Fungicidal Activities, C.V.): 100%
Phytophthora infestans; concentration 2 ppm
  TLB (Fungicidal Activities, C.V.): 6%
Phytophthora infestans; concentration 10 ppm
  TLB (Fungicidal Activities, C.V.): 25%
Phytophthora infestans; concentration 50 ppm
  TLB (Fungicidal Activities, C.V.): 96%
Rhizoctonia solani AG-1; concentration 2 ppm
  RSB (Fungicidal Activities, C.V.): 55%
Rhizoctonia solani AG-1; concentration 10 ppm
  RSB (Fungicidal Activities, C.V.): 70%
Rhizoctonia solani AG-1; concentration 50 ppm
  RSB (Fungicidal Activities, C.V.): 95%
[1]; concentration 2 ppm
  RCV (Fungicidal Activities, C.V.): 98%
[1]; concentration 10 ppm
  RCV (Fungicidal Activities, C.V.): 100%
[1]; concentration 50 ppm
  RCV (Fungicidal Activities, C.V.): 100%
Botrytis cinerae
  CGM (Fungicidal Activities, C.V.): 51%

## CNC(=O)C(=NOC)c1ccccc1CON=Cc1cccc(OC(F)=Cc2cccc(Cl)c2)c1 [Compound 38]
Puccinia recondita; concentration 2 ppm
  WLR (Fungicidal Activities, C.V.): 99%
Puccinia recondita; concentration 50 ppm
  WLR (Fungicidal Activities, C.V.): 100%
Erysiphae graminis; concentration 2 ppm
  BPM (Fungicidal Activities, C.V.): 87%
Erysiphae graminis; concentration 50 ppm
  BPM (Fungicidal Activities, C.V.): 100%
Phytophthora infestans; concentration 50 ppm
  TLB (Fungicidal Activities, C.V.): 0%
Rhizoctonia solani AG-1; concentration 50 ppm
  RSB (Fungicidal Activities, C.V.): 64%
[1]; concentration 2 ppm
  RCV (Fungicidal Activities, C.V.): 97%
[1]; concentration 50 ppm
  RCV (Fungicidal Activities, C.V.): 100%
Botrytis cinerae
  CGM (Fungicidal Activities, C.V.): 0%

## CCc1ccc(C(=C(F)Oc2cccc(C(C)=NOCc3ccccc3C(=COC)C(=O)OC)c2)C(F)(F)F)cc1 [Compound 155]
Puccinia recondita; concentration 2 ppm
  WLR (Fungicidal Activities, C.V.): 83%
Puccinia recondita; concentration 10 ppm
  WLR (Fungicidal Activities, C.V.): 99%
Puccinia recondita; concentration 50 ppm
  WLR (Fungicidal Activities, C.V.): 100%
Erysiphae graminis; concentration 2 ppm
  BPM (Fungicidal Activities, C.V.): 95%
Erysiphae graminis; concentration 10 ppm
  BPM (Fungicidal Activities, C.V.): 99%
Erysiphae graminis; concentration 50 ppm
  BPM (Fungicidal Activities, C.V.): 100%
Phytophthora infestans; concentration 50 ppm
  TLB (Fungicidal Activities, C.V.): 6%
Rhizoctonia solani AG-1; concentration 50 ppm
  RSB (Fungicidal Activities, C.V.): 60%
[1]; concentration 50 ppm
  RCV (Fungicidal Activities, C.V.): 80%
Botrytis cinerae
  CGM (Fungicidal Activities, C.V.): 52%

## CON=C(C(=O)OC)c1ccccc1CON=C(C)c1cccc(OC(F)=C(c2ccc(F)cc2)C(F)(F)F)c1 [Compound 183]
Puccinia recondita; 2 ppm
  Fungicidal Activities WLR (C.V.): 99%
Puccinia recondita; 50 ppm
  Fungicidal Activities WLR (C.V.): 100%
Erysiphae graminis; 2 ppm
  Fungicidal Activities BPM (C.V.): 100%
Erysiphae graminis; 50 ppm
  Fungicidal Activities BPM (C.V.): 100%
Phytophthora infestans; 2 ppm
  Fungicidal Activities TLB (C.V.): 12%
Phytophthora infestans; 50 ppm
  Fungicidal Activities TLB (C.V.): 50%
Rhizoctonia solani AG-1; 2 ppm
  Fungicidal Activities RSB (C.V.): 20%
Rhizoctonia solani AG-1; 50 ppm
  Fungicidal Activities RSB (C.V.): 100%
[1]; 2 ppm
  Fungicidal Activities RCV (C.V.): 99%
[1]; 50 ppm
  Fungicidal Activities RCV (C.V.): 100%
Botrytis cinerae; 50 ppm
  Fungicidal Activities CGM (C.V.): 56%

## COC=C(C(=O)OC)c1ccccc1CON=C(C)c1cccc(OC(F)=C(c2cccc(C)c2)C(F)(F)F)c1 [Compound 151]
Puccinia recondita; concentration 2 ppm
  WLR (Fungicidal Activities, C.V.): 86%
Puccinia recondita; concentration 10 ppm
  WLR (Fungicidal Activities, C.V.): 95%
Puccinia recondita; concentration 50 ppm
  WLR (Fungicidal Activities, C.V.): 100%
Erysiphae graminis; concentration 2 ppm
  BPM (Fungicidal Activities, C.V.): 98%
Erysiphae graminis; concentration 10 ppm
  BPM (Fungicidal Activities, C.V.): 100%
Erysiphae graminis; concentration 50 ppm
  BPM (Fungicidal Activities, C.V.): 100%
Phytophthora infestans; concentration 50 ppm
  TLB (Fungicidal Activities, C.V.): 12%
Rhizoctonia solani AG-1; concentration 2 ppm
  RSB (Fungicidal Activities, C.V.): 35%
Rhizoctonia solani AG-1; concentration 10 ppm
  RSB (Fungicidal Activities, C.V.): 55%
Rhizoctonia solani AG-1; concentration 50 ppm
  RSB (Fungicidal Activities, C.V.): 95%
[1]; concentration 2 ppm
  RCV (Fungicidal Activities, C.V.): 93%
[1]; concentration 10 ppm
  RCV (Fungicidal Activities, C.V.): 99%
[1]; concentration 50 ppm
  RCV (Fungicidal Activities, C.V.): 100%
Botrytis cinerae
  CGM (Fungicidal Activities, C.V.): 24%
